Data published in US8450454B2, “Compositions for inhibiting ABAD/ABeta protein interaction” (The Trustees of Columbia University in the City of New York, priority 2004, dated 2013).
Ends that are not written are not given here.

Legend:
[1] = test system: cultured neurons; test: LDH release from cultured neurons; assay type: cell-based, mouse; settings: neurons from Tg mAPP/ABAD mice (spontaneous) and Tg ABAD mice exposed to Aβ, peptide pretreatment
[2] = test system: cultured neurons; test: DNA fragmentation (Cell Death Detection ELISA) in cultured neurons; assay type: cell-based, mouse; settings: neurons from Tg mAPP/ABAD mice (spontaneous) and Tg ABAD mice exposed to Aβ, peptide pretreatment
[3] = biological target: T1, ABAD (Homo sapiens, UniProt Q99714); test: Binding of fluorescein-labeled ABAD to amyloid-related peptide immobilized on microtiter wells
T1 construct: made in house
T1 sequence (Q99714 1-261): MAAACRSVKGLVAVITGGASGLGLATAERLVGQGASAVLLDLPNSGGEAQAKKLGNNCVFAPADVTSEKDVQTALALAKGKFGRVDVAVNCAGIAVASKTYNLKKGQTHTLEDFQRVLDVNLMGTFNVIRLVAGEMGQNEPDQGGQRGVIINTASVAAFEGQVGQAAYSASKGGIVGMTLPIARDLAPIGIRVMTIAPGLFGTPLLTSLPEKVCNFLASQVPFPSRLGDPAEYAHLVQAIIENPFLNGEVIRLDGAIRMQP

[4] = biological target: T2, ABAD-Aβ (1-40) interaction (Homo sapiens, UniProt P05067); test: Surface plasmon resonance (Biacore): inhibition of Aβ (1-40) binding to immobilized ABAD; settings: one-site competitive inhibition fit
T2 construct: made in house
T2 sequence (P05067 672-711): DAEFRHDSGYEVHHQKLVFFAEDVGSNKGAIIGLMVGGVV
Method: (§1) 3) and ABAD reverse peptide (ABAD-RP, residues 120-92) were synthesized by Biotechnology Lab at Yale University. For binding studies, ABAD was immobilized on CM5 sensor chip (29). […] The reaction/binding buffer contained 50 mM Hepes at pH 7.4, 0.15 M NaCl, 1 mM EDTA, and 0.005% Tween 20. Data analysis was performed using Biacore X biosensor system (Uppsala, Sweden) and BIA evaluation 3.0 software (Biacore, Sweden). Response data are plotted in Resonance Units versus ABAD peptide concentrations (nM), and were fit to a one-site model for competitive inhibition to obtain the Ki.

[5] = biological target: T3, ABAD-Aβ (1-42) interaction (Homo sapiens, UniProt P05067); test: Surface plasmon resonance (Biacore): inhibition of Aβ (1-42) binding to immobilized ABAD; settings: one-site competitive inhibition fit
T3 construct: made in house
T3 sequence (P05067 672-713): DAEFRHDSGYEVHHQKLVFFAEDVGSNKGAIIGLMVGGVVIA
Method: as §1

[6] = biological target: Aβ (1-42) (Homo sapiens, UniProt P05067); test: Binding of 125I-labeled GST-ABAD or ABAD mutants to immobilized Aβ (1-42); set-up: key: +: Specific binding comparable to that observed with wild type ABAD; −: No observed specific binding; settings: 125I-labeled GST-ABAD or ABAD to immobilized Aβ (1-42)
Aβ (1-42), sequence (P05067 672-713): as above

[7] = biological target: Aβ (1-40) (Homo sapiens, UniProt P05067); test: Surface plasmon resonance: Aβ (1-40) binding to immobilized wild-type or mutant ABAD; settings: ABAD immobilized on sensor chip, Aβ (1-40) mobile phase
Aβ (1-40), sequence (P05067 672-711): as the sequence (P05067 672-711) above
Method: as §1, with “[…]; SEQ ID NO. 3)” for “3)”

Question: How did the “LDH release (cytotoxicity)” value [1] turn out when `CC[C@H](C)[C@H](NC(=O)CNC(=O)[C@H](C)N)C(=O)N[C@@H](C)C(=O)N[C@H](C(=O)N[C@@H](C)C(=O)N[C@@H](CO)C(=O)N[C@@H](CCCCN)C(=O)N[C@H](C(=O)N[C@@H](Cc1ccc(O)cc1)C(=O)N[C@@H](CC(N)=O)C(=O)N[C@@H](CC(C)C)C(=O)N[C@@H](CCCCN)C(=O)N[C@@H](CCCCN)C(=O)NCC(=O)N[C@@H](CCC(N)=O)C(=O)N[C@H](C(=O)N[C@@H](Cc1c[nH]cn1)C(=O)N[C@H](C(=O)N[C@@H](CC(C)C)C(=O)N[C@@H](CCC(=O)O)C(=O)N[C@@H](CC(=O)O)C(=O)N[C@@H](Cc1ccccc1)C(=O)N[C@@H](CCC(N)=O)C(=O)N[C@@H](CCCNC(=N)N)C(=O)N[C@H](C(=O)N[C@@H](CC(C)C)C(=O)N[C@@H](CC(=O)O)C(=O)N[C@H](C(=O)O)C(C)C)C(C)C)[C@@H](C)O)[C@@H](C)O)[C@@H](C)O)C(C)C` [ABAD-DP] was run?
Answer: attenuated cytotoxicity

Question: And the “DNA fragmentation (cytotoxicity)” value [2]?
Answer: attenuated cytotoxicity

Question: For `CC[C@H](C)[C@H](NC(=O)[C@H](C)NC(=O)CNC(=O)[C@H](Cc1ccccc1)NC(=O)[C@H](CC(N)=O)NC(=O)[C@H](CC(N)=O)NC(=O)[C@H](CO)NC(=O)[C@H](CO)NC(=O)[C@H](Cc1c[nH]cn1)NC(=O)[C@@H](NC(=O)[C@H](CC(C)C)NC(=O)[C@H](Cc1ccccc1)NC(=O)[C@H](CC(N)=O)NC(=O)[C@H](C)NC(=O)[C@H](CC(C)C)NC(=O)[C@H](CCCNC(=N)N)NC(=O)[C@H](CCC(N)=O)NC(=O)[C@@H](NC(=O)[C@H](C)NC(=O)[C@@H]1CSSC[C@H](NC(=O)[C@@H](N)CCCCN)C(=O)N[C@@H](CC(N)=O)C(=O)N[C@@H]([C@@H](C)O)C(=O)N[C@@H](C)C(=O)N[C@@H]([C@@H](C)O)C(=O)N1)[C@@H](C)O)C(C)C)C(=O)N[C@@H](CC(C)C)C(=O)N[C@@H](CO)C(=O)N[C@@H](CO)C(=O)N[C@H](C(=O)N[C@@H](CC(N)=O)C(=O)N[C@H](C(=O)NCC(=O)N[C@@H](CO)C(=O)N[C@@H](CC(N)=O)C(=O)N[C@H](C(=O)N[C@@H](Cc1ccc(O)cc1)C(N)=O)[C@@H](C)O)C(C)C)[C@@H](C)O` [Amylin], which “binding to ABAD (in words)” value [3] is on record?
Answer: did not bind

Question: Which “binding to ABAD (in words)” value [3] does the source give for `CC(C)C[C@H](NC(=O)[C@H](CCCCN)NC(=O)[C@H](CCC(N)=O)NC(=O)[C@H](Cc1c[nH]cn1)NC(=O)[C@H](Cc1c[nH]cn1)NC(=O)[C@@H](NC(=O)[C@H](CCC(=O)O)NC(=O)[C@H](Cc1ccc(O)cc1)NC(=O)CNC(=O)[C@H](CO)NC(=O)[C@H](CC(=O)O)NC(=O)[C@H](Cc1c[nH]cn1)NC(=O)[C@H](CCCNC(=N)N)NC(=O)[C@H](Cc1ccccc1)NC(=O)[C@H](CCC(=O)O)NC(=O)[C@H](C)NC(=O)[C@@H](N)CC(=O)O)C(C)C)C(=O)N[C@H](C(=O)N[C@@H](Cc1ccccc1)C(=O)N[C@@H](Cc1ccccc1)C(=O)O)C(C)C` [Aβ 1-20] here?
Answer: dose-dependent binding

Question: Which “binding to ABAD (in words)” value [3] does the source give for GSNKGAIIGLM [Aβ 25-35] here?
Answer: no specific binding

Question: And the Kd ([3]; peptide immobilized on microtiter wells, fluorescein-labeled ABAD added)?
Answer: > 1000 nM

Question: For “VDLVRQFDELTHTQGKKLNYTKSAVAIGA [ABAD-RP, reference compound]”, which “inhibitory constant, binding of Aβ (1-40) to immobilized intact ABAD” value [4] is on record?
Answer: completely inactive

Question: And the “DNA fragmentation (cytotoxicity)” value [2]?
Answer: not

Question: What about the “inhibitory constant, binding of Aβ (1-42) to immobilized intact ABAD” value [5] of the same molecule?
Answer: completely inactive

B1: GST-ABAD(159-261): GST-ABAD truncation mutant, residues 159-261 (protein)
chain: FEGQVGQAAYSASKGGIVGMTLPIARDLAPIGIRVMTIAPGLFGTPLLTSLPEKVCNFLASQVPFPSRLGDPAEYAHLVQAIIENPFLNGEVIRLDGAIRMQP
modifications: left off: a dimerising Fc or GST
Question: How did the “Aβ Binding” value [6] turn out when B1 was run?
Answer: −

B2: GST-ABAD(1-186): GST-ABAD truncation mutant, residues 1-186 (protein)
chain: MAAACRSVKGLVAVITGGASGLGLATAERLVGQGASAVLLDLPNSGGEAQAKKLGNNCVFAPADVTSEKDVQTALALAKGKFGRVDVAVNCAGIAVASKTYNLKKGQTHTLEDFQRVLDVNLMGTFNVIRLVAGEMGQNEPDQGGQRGVIINTASVAAFEGQVGQAAYSASKGGIVGMTLPIARDL
modifications: left off: a dimerising Fc or GST
Question: How did the “Aβ Binding” value [6] turn out when B2 was run?
Answer: +

B3: S98A, K99A, Y101A: site-directed ABAD mutant (protein, UniProt Q99714 2-261, looked up, variant S98A K99A Y101A)
3-hydroxyacyl-CoA …: AAACRSVKGLVAVITGGASGLGLATAERLVGQGASAVLLDLPNSGGEAQAKKLGNNCVFAPADVTSEKDVQTALALAKGKFGRVDVAVNCAGIAVAAATANLKKGQTHTLEDFQRVLDVNLMGTFNVIRLVAGEMGQNEPDQGGQRGVIINTASVAAFEGQVGQAAYSASKGGIVGMTLPIARDLAPIGIRVMTIAPGLFGTPLLTSLPEKVCNFLASQVPFPSRLGDPAEYAHLVQAIIENPFLNGEVIRLDGAIRMQP
Question: For B3, which “interaction with Aβ in surface plasmon resonance” value [7] is on record?
Answer: no specific interaction

Question: What about the “Aβ Binding” value [6] of the same molecule?
Answer: −

B4: GST-ABAD(1-158): GST-ABAD truncation mutant, residues 1-158 (protein)
chain: MAAACRSVKGLVAVITGGASGLGLATAERLVGQGASAVLLDLPNSGGEAQAKKLGNNCVFAPADVTSEKDVQTALALAKGKFGRVDVAVNCAGIAVASKTYNLKKGQTHTLEDFQRVLDVNLMGTFNVIRLVAGEMGQNEPDQGGQRGVIINTASVAA
modifications: left off: a dimerising Fc or GST
Question: How did the “Aβ Binding” value [6] turn out when B4 was run?
Answer: +
